Source: patent US20260176265A1 (Cancer Research Technology Limited, priority 2022, published 2026)

Key:
[1] = target: T1, Phospho-EGFR (Tyr1068) in A431 cells (Homo sapiens, UniProt P00533); assay: HTRF pEGFR/total EGFR assay in A431 cells (EGF stimulated); type: cell-based; settings: compound 2.5 hours then 100 ng/ml EGF 30 mins, ratio pEGFR/total EGFR
T1 construct: endogenous in cells; host or cells: A431
Procedure: Cells were plated at 20,000 cells per well in 96 well plates and placed at 37° C. 5% CO2. Once adhered (after 24h) cells were treated with compounds dissolved in DMSO at a final concentration of 0.1% DMSO in media. Compounds were diluted in media then added to cells for 2.5 hours in duplicate, 100 ng/ml EGF (ThermoFisher, PHG0311 was is added to all compound treated cells as well as a control for 30 mins. Compound and media were removed from the cells, then 50ul of HTRF lysis bufferwas added (lysis bufferwas diluted from 4× stock to 1× in DI water, with 1% blocking agent also added). Cells were lysed on a plate shaker (2000 rpm) for 30 minutes at room temperature. pEGFR expression was monitored using the Cisbio Phospho-EGFR (Tyr1068) cellular kit (64EG1PEH). Total EGFR expression was monitored using the Cisbio Total EGFR cellular kit (64NG1PEH) as per manufacturer's instructions. Fluorescence emission was read at two different wavelengths (665 nm and 620 nm) on a PheraStar. Results were calculated as ratio of pEGFR/total EGFR and then percentage of OuM control.

[2] = target: CtermHisTag-mEGFR Wild type (Homo sapiens, UniProt P00533); assay: TR-FRET probe displacement assay, EGFR wild type; type: binding; settings: EGFR wild type 1.25 nM, probe 100 nM, 30 mins room temperature
Procedure: (§1) Compounds (dissolved to 100 mM in DMSO) were dispensed into black low volume 384 well assay plates (Corning) over a final concentration range of 100000, 30000, 10000, 3000, 1000, 300, 100, 30, 10, and 3 nM using an Echo 550 (Labcyte). Positive control compound and DMSO as a negative control were dispensed into the first and last well, respectively. […]. Plates were read using a PheraStar FS (BMG Labtech) at Ex337 nm Ex490/520 nm. The data were analysed using Graphpad Prism/Dotmatics Studies Software. Assays conducted in technical replicate and repeated as a biological duplicate.

[3] = target: T2, Phospho-EGFR (Tyr1068) in H1975 cells (Homo sapiens, UniProt P00533, L858R/T790M); assay: HTRF pEGFR/total EGFR assay in H1975 cells; type: cell-based; settings: compound 3 hours, ratio pEGFR/total EGFR
T2 construct: host or cells: H1975
T2 sequence (P00533 25-1210 T790M/L858R): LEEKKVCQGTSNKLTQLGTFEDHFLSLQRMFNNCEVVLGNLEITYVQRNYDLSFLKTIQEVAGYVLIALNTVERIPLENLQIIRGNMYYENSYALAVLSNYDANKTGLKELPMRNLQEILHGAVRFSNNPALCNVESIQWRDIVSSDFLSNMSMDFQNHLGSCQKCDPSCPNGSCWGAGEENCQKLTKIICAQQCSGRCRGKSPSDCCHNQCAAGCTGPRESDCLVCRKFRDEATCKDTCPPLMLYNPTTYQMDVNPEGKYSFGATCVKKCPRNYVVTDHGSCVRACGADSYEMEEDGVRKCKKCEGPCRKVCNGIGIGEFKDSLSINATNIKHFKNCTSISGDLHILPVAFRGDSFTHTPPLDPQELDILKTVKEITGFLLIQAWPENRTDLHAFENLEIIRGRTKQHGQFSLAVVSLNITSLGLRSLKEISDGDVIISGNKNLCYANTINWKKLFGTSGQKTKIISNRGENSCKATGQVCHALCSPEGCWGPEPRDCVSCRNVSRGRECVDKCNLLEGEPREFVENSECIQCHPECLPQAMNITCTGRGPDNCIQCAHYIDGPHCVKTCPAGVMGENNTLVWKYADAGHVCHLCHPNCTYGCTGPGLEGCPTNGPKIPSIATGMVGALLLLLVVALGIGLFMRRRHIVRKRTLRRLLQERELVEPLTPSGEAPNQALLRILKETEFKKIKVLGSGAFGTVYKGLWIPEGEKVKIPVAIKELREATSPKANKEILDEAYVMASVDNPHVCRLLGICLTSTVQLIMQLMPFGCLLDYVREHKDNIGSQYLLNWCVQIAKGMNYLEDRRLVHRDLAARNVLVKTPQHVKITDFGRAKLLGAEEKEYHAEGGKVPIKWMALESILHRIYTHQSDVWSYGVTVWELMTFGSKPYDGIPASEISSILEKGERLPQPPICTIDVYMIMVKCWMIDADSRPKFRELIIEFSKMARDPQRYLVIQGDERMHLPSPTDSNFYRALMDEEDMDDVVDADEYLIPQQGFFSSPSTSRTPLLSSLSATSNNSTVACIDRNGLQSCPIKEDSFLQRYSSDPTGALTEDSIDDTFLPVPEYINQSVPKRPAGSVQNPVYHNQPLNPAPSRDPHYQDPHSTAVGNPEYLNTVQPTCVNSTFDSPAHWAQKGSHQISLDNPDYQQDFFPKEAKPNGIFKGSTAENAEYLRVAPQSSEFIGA
Procedure: H1975 cells (ATCC CRL-5908) were plated at 20,000 cells per well in 96 well plates and placed at 37° C. 5% CO2. Once adhered (after 24h) cells were treated with compounds dissolved in DMSO at a final concentration of 0.1% DMSO in media. Compounds were diluted in media then added to cells for 3 hours in duplicate. Compound and media were removed from the cells, then 50ul of HTRF lysis buffer is added (lysis buffer was diluted from 4× stock to 1× in DI water, with 1% blocking agent also added). Cells were lysed on a plate shaker (2000 rpm) for 30 minutes at room temperature. pEGFR expression was monitored using the Cisbio Phospho-EGFR (Tyri068) cellular kit (64EG1 PEH). Total EGFR expression was monitored using the Cisbio Total EGFR cellular kit (64NG1 PEH) as per manufacturer's instructions. Fluorescence emission was read at two different wavelengths (665 nm and 620 nm) on a PheraStar. Results were calculated as ratio of pEGFR/total EGFR and then percentage of 0 uM control.

[4] = target: CtermHisTag-mEGFR Triple Mutant - C797S, L858R, T790M (Homo sapiens, UniProt P00533, C797S/L858R/T790M); assay: TR-FRET probe displacement assay, EGFR triple mutant; type: binding; settings: T790M 1.25 nM, probe 100 nM, 30 mins room temperature
CtermHisTag-mEGFR Triple Mutant - C797S, L858R, T790M, sequence (P00533 25-1210 T790M/C797S/L858R): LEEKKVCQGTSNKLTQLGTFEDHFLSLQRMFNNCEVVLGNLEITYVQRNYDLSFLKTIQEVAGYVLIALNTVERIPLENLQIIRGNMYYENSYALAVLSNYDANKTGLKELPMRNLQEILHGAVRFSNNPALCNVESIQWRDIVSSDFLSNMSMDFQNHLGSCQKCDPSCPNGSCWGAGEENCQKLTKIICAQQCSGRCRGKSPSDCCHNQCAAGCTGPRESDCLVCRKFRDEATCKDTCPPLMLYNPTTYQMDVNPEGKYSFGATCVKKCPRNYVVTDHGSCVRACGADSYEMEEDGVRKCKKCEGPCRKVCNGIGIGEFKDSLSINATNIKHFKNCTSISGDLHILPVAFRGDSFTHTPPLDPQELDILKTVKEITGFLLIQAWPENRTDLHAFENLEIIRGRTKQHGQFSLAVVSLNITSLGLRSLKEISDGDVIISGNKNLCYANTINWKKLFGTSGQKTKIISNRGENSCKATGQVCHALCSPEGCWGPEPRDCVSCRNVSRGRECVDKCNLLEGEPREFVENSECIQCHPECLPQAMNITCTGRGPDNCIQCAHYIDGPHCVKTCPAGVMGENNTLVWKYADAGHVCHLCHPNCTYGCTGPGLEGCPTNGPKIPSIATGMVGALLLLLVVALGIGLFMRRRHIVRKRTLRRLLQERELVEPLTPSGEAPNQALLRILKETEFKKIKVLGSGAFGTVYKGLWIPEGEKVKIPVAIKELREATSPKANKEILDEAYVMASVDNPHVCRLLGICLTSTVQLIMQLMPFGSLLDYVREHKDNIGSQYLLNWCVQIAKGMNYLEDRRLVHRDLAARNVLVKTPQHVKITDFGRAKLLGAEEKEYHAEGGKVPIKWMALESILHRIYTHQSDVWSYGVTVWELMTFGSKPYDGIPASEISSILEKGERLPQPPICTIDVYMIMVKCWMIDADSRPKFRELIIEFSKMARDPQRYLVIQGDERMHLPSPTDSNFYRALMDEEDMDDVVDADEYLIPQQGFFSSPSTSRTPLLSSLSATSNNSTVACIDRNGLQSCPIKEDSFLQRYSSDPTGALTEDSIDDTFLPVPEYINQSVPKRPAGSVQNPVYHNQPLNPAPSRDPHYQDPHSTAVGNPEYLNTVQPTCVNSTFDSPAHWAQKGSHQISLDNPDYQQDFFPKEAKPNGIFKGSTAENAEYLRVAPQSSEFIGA
Procedure: as §1

[5] = target: T3, Phospho-EGFR (Tyr1068) in H1975 C797S cells (Homo sapiens, UniProt P00533, C797S/L858R/T790M); assay: HTRF pEGFR/total EGFR assay in H1975 C797S cells; type: cell-based; settings: H1975 C797S cells (CRISPR), compound 3 hours, ratio pEGFR/total EGFR
T3 construct: endogenous in cells; host or cells: H1975 C797S (CRISPR-edited in house from ATCC CRL-5908)
T3 sequence (P00533 25-1210 T790M/C797S/L858R): as above
Procedure: H1975 C797S cells (ATCC CRL-5908) were genetically engineered by CRISPR editing of EGFR C797S in house and validated by NGS. Cells were plated at 20,000 cells per well in 96 well plates and placed at 37° C. 5% CO2. Once adhered (after 24h) cells were treated with compounds dissolved in DMSO at a final concentration of 0.1% DMSO in media. Compounds were diluted in media then added to cells for 3 hours in duplicate. Compound and media were removed from the cells, then 50 ul of HTRF lysis buffer was added (lysis buffer was diluted from 4× stock to 1× in DI water, with 1% blocking agent also added). Cells were lysed on a plate shaker (2000 rpm) for 30 minutes at room temperature. pEGFR expression was monitored using the Cisbio Phospho-EGFR (Tyr1068) cellular kit (64EG1PEH). Total EGFR expression was monitored using the Cisbio Total EGFR cellular kit (64NG1PEH) as per manufacturer's instructions. Fluorescence emission was read at two different wavelengths (665 nm and 620 nm) on a PheraStar. Results were calculated as ratio of pEGFR/total EGFR and then percentage of 0 uM control.

T1 sequence (P00533 25-1210): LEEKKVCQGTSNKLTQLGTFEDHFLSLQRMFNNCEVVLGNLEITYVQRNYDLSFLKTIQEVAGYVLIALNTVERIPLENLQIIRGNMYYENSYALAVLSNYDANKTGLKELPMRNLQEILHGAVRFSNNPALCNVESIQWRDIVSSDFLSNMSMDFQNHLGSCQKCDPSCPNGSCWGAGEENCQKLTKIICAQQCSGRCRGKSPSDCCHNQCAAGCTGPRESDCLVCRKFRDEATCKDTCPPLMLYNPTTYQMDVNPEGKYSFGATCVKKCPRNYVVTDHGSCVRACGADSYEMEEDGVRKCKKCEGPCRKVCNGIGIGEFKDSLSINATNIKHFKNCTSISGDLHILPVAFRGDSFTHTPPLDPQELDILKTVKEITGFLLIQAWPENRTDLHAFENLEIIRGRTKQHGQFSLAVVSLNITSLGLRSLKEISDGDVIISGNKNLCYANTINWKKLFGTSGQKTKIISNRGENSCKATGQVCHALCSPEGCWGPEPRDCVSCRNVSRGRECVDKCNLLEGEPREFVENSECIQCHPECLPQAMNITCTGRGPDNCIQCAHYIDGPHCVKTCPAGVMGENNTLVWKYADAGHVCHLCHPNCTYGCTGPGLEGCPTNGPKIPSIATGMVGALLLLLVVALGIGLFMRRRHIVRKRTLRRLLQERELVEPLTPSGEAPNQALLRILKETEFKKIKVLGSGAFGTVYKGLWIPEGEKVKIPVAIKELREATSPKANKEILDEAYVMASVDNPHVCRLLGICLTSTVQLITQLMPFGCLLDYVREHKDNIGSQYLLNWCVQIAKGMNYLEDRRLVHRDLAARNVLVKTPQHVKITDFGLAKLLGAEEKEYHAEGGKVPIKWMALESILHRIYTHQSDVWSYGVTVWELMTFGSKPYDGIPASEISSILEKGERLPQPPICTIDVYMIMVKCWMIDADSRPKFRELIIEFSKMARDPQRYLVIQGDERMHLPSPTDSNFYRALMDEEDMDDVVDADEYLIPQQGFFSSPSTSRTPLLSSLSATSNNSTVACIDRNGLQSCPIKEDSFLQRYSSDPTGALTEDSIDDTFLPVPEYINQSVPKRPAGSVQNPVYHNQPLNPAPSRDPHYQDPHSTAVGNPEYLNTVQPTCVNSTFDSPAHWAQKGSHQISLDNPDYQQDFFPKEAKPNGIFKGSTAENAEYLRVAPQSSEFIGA

Compound	IC50 [1]	IC50 [2]	IC50 [3]	IC50 [4]	IC50 [5]
C#Cc1cc(OC2CCC2)nc2nc(Nc3ccc(N4CCN(C)CC4)cc3)ncc12 [Example 18, 7-cyclobutoxy-5-ethynyl-N-[4-(4-methylpiperazin-1-yl)phenyl]pyrido[2,3-d]pyrimidin-2-amine]	> 3 µM	> 10 µM	> 3 µM	0.02 to 0.1 µM	> 3 µM
C#Cc1cc(OCc2ccccc2)nc2nc(Nc3ccc(N4CCN(C)CC4)cc3)ncc12 [Example 20, 7-(benzyloxy)-5-ethynyl-N-[4-(4-methylpiperazin-1-yl)phenyl]pyrido[2,3-d]pyrimidin-2-amine]	> 3 µM	> 10 µM	> 3 µM	0.1 to 1 µM	> 3 µM
C#Cc1cc(OCCc2ccccc2)nc2nc(Nc3ccc(N4CCN(C)CC4)cc3)ncc12 [Example 21, 5-ethynyl-N-[4-(4-methylpiperazin-1-yl)phenyl]-7-(2-phenylethoxy)pyrido[2,3-d]pyrimidin-2-amine]	> 3 µM	> 10 µM	> 3 µM	0.1 to 1 µM	> 3 µM
C#Cc1cc(OCCCc2ccccc2)nc2nc(Nc3ccc(N4CCN(C)CC4)cc3)ncc12 [Example 22, 5-ethynyl-N-[4-(4-methylpiperazin-1-yl)phenyl]-7-(3-phenylpropoxy)pyrido[2,3-d]pyrimidin-2-amine]	> 3 µM	> 10 µM	> 3 µM	0.1 to 1 µM	> 3 µM
C#Cc1c(C)c(OCC2CCCC2)nc2nc(Nc3ccc(N4CCN(C)CC4)cc3)ncc12 [Example 23, 7-(cyclopentylmethoxy)-5-ethynyl-6-methyl-N-[4-(4-methylpiperazin-1-yl)phenyl]pyrido[2,3-d]pyrimidin-2-amine]	> 3 µM	> 10 µM	> 3 µM	0.1 to 1 µM	> 3 µM
C#Cc1cc(N(C)C)nc2nc(Nc3ccc(N(C)CCN(C)C)cc3)ncc12 [Example 24, N^2-(4-{[2-(dimethylamino)ethyl](methyl)amino}phenyl)-5-ethynyl-N^7,N^7-dimethylpyrido[2,3-d]pyrimidine-2,7-diamine]	> 3 µM	> 10 µM	> 3 µM	1 to 50 µM	> 3 µM
C#Cc1cc(Nc2ccccc2)nc2nc(Nc3ccc(N(C)CCN(C)C)cc3)ncc12 [Example 25, N^2-(4-{[2-(dimethylamino)ethyl](methyl)amino}phenyl)-5-ethynyl-N^7-phenylpyrido[2,3-d]pyrimidine-2,7-diamine]	> 3 µM	> 10 µM	> 3 µM	1 to 50 µM	> 3 µM
C#Cc1cc(Nc2nccn2C)nc2nc(Nc3ccc(N4CCN(C)CC4)cc3)ncc12 [Example 26, 5-ethynyl-N^7-(1-methylmidazol-2-yl)-N^2-[4-(4-methylpiperazin-1-yl)phenyl]pyrido[2,3-d]pyrimidine-2,7-diamine]	> 3 µM	1 to 10 µM	0.5 to 1 µM	0.02 to 0.1 µM	1 to 3 µM
C#Cc1cc(Nc2nccn2C2CCCC2)nc2nc(Nc3ccc(N4CCN(C)CC4)cc3)ncc12 [Example 27, N^7-(1-cyclopentylmidazol-2-yl)-5-ethynyl-N^2-[4-(4-methylpiperazin-1-yl)phenyl]pyrido[2,3-d]pyrimidine-2,7-diamine]	> 3 µM	< 1 µM	1 to 3 µM	0.02 to 0.1 µM	> 3 µM
C#Cc1cc(NC(C)=O)nc2nc(Nc3ccc(N(C)CCN(C)C)cc3)ncc12 [Example 28]	> 3 µM	> 10 µM	> 3 µM	< 0.02 µM	> 3 µM
C#Cc1cc(NC(=O)c2ccccc2)nc2nc(Nc3ccc(N4CCN(C)CC4)cc3)ncc12 [Example 29, N-(5-ethynyl-2-{[4-(4-methylpiperazin-1-yl)phenyl]amino}pyrido[2,3-d]pyrimidin-7-yl)benzamide]	> 3 µM	1 to 10 µM	> 3 µM	0.02 to 0.1 µM	> 3 µM
C#Cc1cc(NC(=O)Cc2ccccc2)nc2nc(Nc3ccc(N4CCN(C)CC4)cc3)ncc12 [Example 30, N-(5-ethynyl-2-{[4-(4-methylpiperazin-1-yl)phenyl]amino}pyrido[2,3-d]pyrimidin-7-yl)-2-phenylacetamide]	> 3 µM	1 to 10 µM	1 to 3 µM	< 0.02 µM	1 to 3 µM
C#Cc1cc(N2CCCC2=O)nc2nc(Nc3ccc(N4CCN(C)CC4)cc3)ncc12 [Example 31, 1-(5-ethynyl-2-{[4-(4-methylpiperazin-1-yl)phenyl]amino}pyrido[2,3-d]pyrimidin-7-yl)pyrrolidin-2-one]	> 3 µM	1 to 10 µM	1 to 3 µM	< 0.02 µM	1 to 3 µM
C#Cc1cc(NC(=O)CCc2ccccc2)nc2nc(Nc3ccc(N4CCN(C)CC4)cc3)ncc12 [Example 32, N-(5-ethynyl-2-{[4-(4-methylpiperazin-1-yl)phenyl]amino}pyrido[2,3-d]pyrimidin-7-yl)-3-phenylpropanamide]	> 3 µM	1 to 10 µM	1 to 3 µM	< 0.02 µM	1 to 3 µM
C#Cc1cc(NS(C)(=O)=O)nc2c1=CNC(Nc1ccc(N(C)CCN(C)C)cc1)N=2 (stereo not drawn) [Example 33]	> 3 µM	> 10 µM	> 3 µM	0.02 to 0.1 µM	> 3 µM
C#Cc1cc(-n2cc(C)cn2)nc2nc(Nc3ccc(N(C)CCN(C)C)cc3)ncc12 [Example 34, N^1-[2-(dimethylamino)ethyl]-N^4-[5-ethynyl-7-(4-methylpyrazol-1-yl)pyrido[2,3-d]pyrimidin-2-yl]-N^1-methylbenzene-1,4-diamine]	> 3 µM	1 to 10 µM	> 3 µM	< 0.02 µM	1 to 3 µM
C#Cc1cc(-n2ccnc2)nc2nc(Nc3ccc(N4CCN(C)CC4)cc3)ncc12 [Example 35, 5-ethynyl-7-(imidazol-1-yl)-N-[4-(4-methylpiperazin-1-yl)phenyl]pyrido[2,3-d]pyrimidin-2-amine]	> 3 µM	< 1 µM	1 to 3 µM	< 0.02 µM	> 3 µM
C#Cc1cc(-n2cccc2)nc2nc(Nc3ccc(N4CCN(C)CC4)cc3)ncc12 [Example 36, 5-ethynyl-N-[4-(4-methylpiperazin-1-yl)phenyl]-7-(pyrrol-1-yl)pyrido[2,3-d]pyrimidin-2-amine]	> 3 µM	1 to 10 µM	1 to 3 µM	< 0.02 µM	> 3 µM
